Measured values published in patent US11213484B2, “Dipivefrin orally disintegrating tablet formulations” (priority 2019, dated 2022).

Legend:
[1] = Oral absorption (general statements); type: in vivo; details: orally administered
[2] = cited from earlier work
[3] = cited from earlier work; remark: listed apart in the source
[4] = well known in the art; cited from earlier work

absorption after oral administration [1]	SMILES	amount entering the rabbit eye relative to epinephrine [2]	dipivefrin converted into epinephrine ([3]; 0.5% solution instilled in human eyes, within 30 minutes) [%]	ocular penetration relative to epinephrine (times greater) ([3]; human eyes) [times]	absorption when taken orally [4]
well absorbed	CNCC(O)c1ccc(OC(=O)C(C)(C)C)c(OC(=O)C(C)(C)C)c1 (centres unmarked) [Dipivefrin, 4-(1-hydroxy-2-(methylamino)ethyl)-1,2-phenylene bis(2,2-dimethylpropanoate)]	eight to ten times more	80	17	–
–	CNC[C@H](O)c1ccc(O)c(O)c1 [epinephrine]	–	–	–	not absorbed
